Assay results reported in patent publication US10934276B2, “Positive allosteric modulators of the muscarinic acetylcholine receptor M4” (Vanderbilt University, priority 2016, dated 2021).
pEC50: −log10 of the molar value.

Molecular target: T1, Human M4 (Homo sapiens, UniProt P08173)
T1 construct: expressed in transfected cells; host or cells: CHO-K1 (ATCC), stably expressing hM4 and Gqi5
T1 sequence (P08173 1-479): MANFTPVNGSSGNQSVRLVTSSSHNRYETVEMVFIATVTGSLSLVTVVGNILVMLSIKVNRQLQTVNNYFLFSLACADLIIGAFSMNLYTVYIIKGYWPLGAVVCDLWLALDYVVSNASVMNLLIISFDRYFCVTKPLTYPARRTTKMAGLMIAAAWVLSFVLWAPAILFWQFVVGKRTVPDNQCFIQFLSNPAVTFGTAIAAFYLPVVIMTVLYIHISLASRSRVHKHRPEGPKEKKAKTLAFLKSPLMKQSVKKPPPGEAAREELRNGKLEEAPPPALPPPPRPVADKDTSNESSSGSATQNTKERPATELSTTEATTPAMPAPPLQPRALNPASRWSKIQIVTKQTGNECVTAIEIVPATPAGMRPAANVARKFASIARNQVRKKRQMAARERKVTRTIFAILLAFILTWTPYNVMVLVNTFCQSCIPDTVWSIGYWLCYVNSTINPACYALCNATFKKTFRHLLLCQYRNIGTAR
Assay: mAChR M4 cell-based functional assay (calcium flux, potentiation of EC20 acetylcholine response in CHO-K1 hM4-Gqi5 cells)
Details: for Emax at 30 µM: CHO-K1, % ACh maximum at 30 μM, human M4; for pEC50: positive allosteric modulator mode, EC20 acetylcholine, CHO-K1 cells with human M4 and Gqi5
Protocol: Human M4 cDNA, along with the chimeric G protein Gqi5, were transfected into Chinese hamster ovary (CHO—K1) cells purchased from the American Type Culture Collection using Lipofectamine2000. hM4-Gqi5 cells were grown in Ham's F-12 medium containing 10% heat-inactivated fetal bovine serum (FBS), 20 mM HEPES, 50 μg/mL G418 sulfate, and 500 μg/mL Hygromycin B. rM4-Gqi5 cells were grown in DMEM containing 10% heat-inactivated FBS, 20 mM HEPES, 400 μg/mL G418 sulfate, and 500 μg/mL Hygromycin B.
For high throughput measurement of agonist-evoked increases in intracellular calcium, CHO—K1 cells stably expressing muscarinic receptors were plated in growth medium lacking G418 and hygromycin at 15,000 cells/20 μL/well in Greiner 384-well black-walled, tissue culture (TC)-treated, clear-bottom plates (VWR). Cells were incubated overnight at 37° C. and 5% CO2. The next day, cells were washed using an ELX 405 (BioTek) with assay buffer; the final volume was then aspirated to 20 μL. Next, 20 μL of a 2.3 μM stock of Fluo-4/acetoxymethyl ester (Invitrogen, Carlsbad, Calif.), prepared as a 2.3 mM stock in DMSO and mixed in a 1:1 ratio with 10% (w/v) Pluronic F-127 and diluted in assay buffer, was added to the wells and the cell plates were incubated for 50 min at 37° C. and 5% CO2. Dye was removed by washing with the ELX 405 and the final volume was aspirated to 20 μL. Compound master plates were formatted in an 11 point concentration-response curve (CRC) format (1:3 dilutions) in 100% DMSO with a starting concentration of 10 mM using a BRAVO liquid handler (Agilent). Test compound CRCs were then transferred to daughter plates (240 nL) using the Echo acoustic plate reformatter (Labcyte, Sunnyvale, Calif.) and then diluted into assay buffer (40 μL) to a 2× stock using a Thermo Fisher Combi (Thermo Fisher Scientific, Waltham, Mass.).
Calcium flux was measured using the Functional Drug Screening System (FDSS) 6000 or 7000 (Hamamatsu Corporation, Tokyo, Japan) as an increase in the fluorescent static ratio. Compounds were applied to cells (20 μL, 2×) using the automated system of the FDSS at 2-4 seconds into the protocol and the data were collected at 1 Hz. At 144 seconds, 10 μL of an EC20 concentration of the muscarinic receptor agonist acetylcholine was added (5×), followed by the addition of 12 μL of an EC80 concentration of acetylcholine at the 230 second time point (5×). Agonist activity was analyzed as a concentration-dependent increase in calcium mobilization upon compound addition. Positive allosteric modulator activity was analyzed as a concentration-dependent increase in the EC20 acetylcholine response. With the acetylcholine EC20 set as baseline, the test compound EC50 is determined as the concentration that produces an increase above baseline of 50% of the maximum increase in acetylcholine response elicted by the test compound. Antagonist activity was analyzed as a concentration-dependent decrease in the EC80 acetylcholine response. Concentration-response curves were generated using a four-parameter logistical equation in XLFit curve fitting software (IDBS, Bridgewater, N.J.) for Excel (Microsoft, Redmond, Wash.) or Prism (GraphPad Software, Inc., San Diego, Calif.).
Compounds were synthesized as described above. Activity (EC50 and Emax) was determined in the mAChR M4 cell-based functional assay as described above and the data are shown in Table 3. The compound numbers correspond to the compound numbers used in Examples 2-4 and Tables 1 and 2.

Row | Emax at 30 µM [%] | pEC50 | SMILES
1 | 53.1 | < 5.00 | COc1ccc(CNC(=O)c2ccc3nc(C)cc(C)c3c2)cc1F [Compound 1, N-[(3-fluoro-4-methoxy-phenyl)methyl]-2,4-dimethyl-quinoline-6-carboxamide]
2 | 39.3 | 6.27 | COc1cc(N2CC(NC(=O)c3ccc4nc(C)cc(C)c4c3)C2)c(Cl)cn1 [Compound 2, N-[1-(5-chloro-2-methoxy-4-pyridyl)azetidin-3-yl]-2,4-dimethyl-quinoline-6-carboxamide]
3 | 44.2 | 5.16 | Cc1cc(C)c2cc(C(=O)NC3CN(c4ncc(C(F)(F)F)cn4)C3)ccc2n1 [Compound 3, 2,4-dimethyl-N-[1-[5-(trifluoromethyl)pyrimidin-2-yl]azetidin-3-yl]quinoline-6-carboxamide]
4 | 49.3 | 5.28 | Cc1cc(C)c2cc(C(=O)NC3CN(c4ncc(OC(C)C)cn4)C3)ccc2n1 [Compound 4, N-[1-(5-isopropoxypyrimidin-2-yl)azetidin-3-yl]-2,4-dimethyl-quinoline-6-carboxamide]
5 | 52.5 | 6.72 | Cc1cc(C)c2cc(C(=O)NC3CN(c4cc(Cl)ncc4Cl)C3)ccc2n1 [Compound 5, N-[1-(2,5-dichloro-4-pyridyl)azetidin-3-yl]-2,4-dimethyl-quinoline-6-carboxamide]
6 | 26.4 | < 5.00 | Cc1cc(C)c2cc(C(=O)NCc3ccncc3)ccc2n1 [Compound 6, 2,4-dimethyl-N-(4-pyridylmethyl)quinoline-6-carboxamide]
7 | 32 | < 5.00 | Cc1cc(C)c2cc(C(=O)NCc3cccnc3)ccc2n1 [Compound 7, 2,4-dimethyl-N-(3-pyridylmethyl)quinoline-6-carboxamide]
8 | 41.1 | 5.77 | Cc1cc(N2CC(NC(=O)c3ccc4nc(C)cc(C)c4c3)C2)cc(OC(F)F)n1 [Compound 8, N-[1-[2-(difluoromethoxy)-6-methyl-4-pyridyl]azetidin-3-yl]-2,4-dimethyl-quinoline-6-carboxamide]
9 | 26.1 | 6.43 | Cc1cc(C)c2cc(C(=O)NC3CN(c4cc(Cl)nc(Cl)c4)C3)ccc2n1 [Compound 9, N-[1-(2,6-dichloro-4-pyridyl)azetidin-3-yl]-2,4-dimethyl-quinoline-6-carboxamide]
10 | 55.5 | 5.85 | Cc1cc(C)c2cc(C(=O)NC3CN(c4ccnc(OC(F)F)c4)C3)ccc2n1 [Compound 10, N-[1-[2-(difluoromethoxy)-4-pyridyl]azetidin-3-yl]-2,4-dimethyl-quinoline-6-carboxamide]
11 | 27.5 | 5.66 | Cc1cc(C)c2cc(C(=O)NC3CN(c4nccc(Br)c4Cl)C3)ccc2n1 [Compound 11, N-[1-(4-bromo-3-chloro-2-pyridyl)azetidin-3-yl]-2,4-dimethyl-quinoline-6-carboxamide]
12 | 65.4 | 6.77 | Cc1cc(C)c2cc(C(=O)NC3CN(c4ccnc(F)c4F)C3)ccc2n1 [Compound 12, N-[1-(2,3-difluoro-4-pyridyl)azetidin-3-yl]-2,4-dimethyl-quinoline-6-carboxamide]
13 | 59.5 | 5.80 | Cc1cc(C)c2cc(C(=O)NC3CN(c4nccc(Br)c4F)C3)ccc2n1 [Compound 13, N-[1-(4-bromo-3-fluoro-2-pyridyl)azetidin-3-yl]-2,4-dimethyl-quinoline-6-carboxamide]
14 | 74.1 | 6.43 | COc1cc(N2CC(NC(=O)c3ccc4nnc(C)c(C)c4c3)C2)c(Cl)cn1 [Compound 14, N-[1-(5-chloro-2-methoxy-4-pyridyl)azetidin-3-yl]-3,4-dimethyl-cinnoline-6-carboxamide]
15 | 72.3 | 5.72 | COc1ccc(CNC(=O)c2ccc3nnc(C)c(C)c3c2)cc1F [Compound 15, N-[(3-fluoro-4-methoxy-phenyl)methyl]-3,4-dimethyl-cinnoline-6-carboxamide]
16 | 71.2 | < 5.00 | Cc1nnc2ccc(C(=O)NCc3ccc(C(C)(C)O)cc3)cc2c1C [Compound 16, N-[[4-(1-hydroxy-1-methyl-ethyl)phenyl]methyl]-3,4-dimethyl-cinnoline-6-carboxamide]
17 | 76.7 | < 5.00 | Cc1nnc2ccc(C(=O)NC3CN(c4ncc(C(F)(F)F)cn4)C3)cc2c1C [Compound 17, 3,4-dimethyl-N-[1-[5-(trifluoromethyl)pyrimidin-2-yl]azetidin-3-yl]cinnoline-6-carboxamide]
18 | 81.7 | 6.13 | Cc1nnc2ccc(C(=O)NC3CN(c4ccc(F)c(F)c4)C3)cc2c1C [Compound 18, N-[1-(3,4-difluorophenyl)azetidin-3-yl]-3,4-dimethyl-cinnoline-6-carboxamide]
19 | 75.4 | < 5.00 | Cc1nnc2ccc(C(=O)NC3CN(c4ncc(F)cn4)C3)cc2c1C [Compound 19, N-[1-(5-fluoropyrimidin-2-yl)azetidin-3-yl]-3,4-dimethyl-cinnoline-6-carboxamide]
20 | 87.8 | 5.49 | Cc1nnc2ccc(C(=O)NC3CN(c4ncc(OC(C)C)cn4)C3)cc2c1C [Compound 20, N-[1-(5-isopropoxypyrimidin-2-yl)azetidin-3-yl]-3,4-dimethyl-cinnoline-6-carboxamide]
21 | 77.8 | < 5.00 | Cc1nnc2ccc(C(=O)NC3CN(c4cnc(C(F)(F)F)cn4)C3)cc2c1C [Compound 21, 3,4-dimethyl-N-[1-[5-(trifluoromethyl)pyrazin-2-yl]azetidin-3-yl]cinnoline-6-carboxamide]
22 | 79.9 | 5.60 | Cc1nnc2ccc(C(=O)NC3CN(c4cnc(C5CC5)cn4)C3)cc2c1C [Compound 22, N-[1-(5-cyclopropylpyrazin-2-yl)azetidin-3-yl]-3,4-dimethyl-cinnoline-6-carboxamide]
23 | 73.4 | 5.90 | Cc1nnc2ccc(C(=O)NC3CN(c4ccc(Cl)cn4)C3)cc2c1C [Compound 23, N-[1-(5-chloro-2-pyridyl)azetidin-3-yl]-3,4-dimethyl-cinnoline-6-carboxamide]
24 | 79.2 | < 5.00 | Cc1nnc2ccc(C(=O)NC3CN(c4ccc(F)cn4)C3)cc2c1C [Compound 24, N-[1-(5-fluoro-2-pyridyl)azetidin-3-yl]-3,4-dimethyl-cinnoline-6-carboxamide]
25 | 80.6 | 5.99 | Cc1nnc2ccc(C(=O)NC3CN(c4ccc(C#N)cn4)C3)cc2c1C [Compound 25, N-[1-(5-cyano-2-pyridyl)azetidin-3-yl]-3,4-dimethyl-cinnoline-6-carboxamide]
26 | 79.7 | 6.34 | Cc1nnc2ccc(C(=O)NC3CN(c4ncc(F)cc4Cl)C3)cc2c1C [Compound 26, N-[1-(3-chloro-5-fluoro-2-pyridyl)azetidin-3-yl]-3,4-dimethyl-cinnoline-6-carboxamide]
